In patent US11965039B2, “Compstatin analogues and their medical uses” (priority 2018, dated 2024):
Starred links: 1 amine or outer side, 2 acyl side, 3 side chain; linkers in the order of their positions; H or OH if unused. Positions of bridges follow the written chain, without caps; N, C: chain ends. Non-standard residues stand in square brackets, D forms with d. Residues, ends and D or L forms follow the SMILES beside them. Groups on a side chain read outwards from the residue. *: point of attachment. Trp(1-Me) = Cn1cc(C[C@H](N)C(=O)O)c2ccccc21; C18 diacid = O=C(O)CCCCCCCCCCCCCCCCC(=O)*; C16 diacid = O=C(O)CCCCCCCCCCCCCCC(=O)*; γGlu = O=C(O)[C@H](CCC(=O)[*:2])N[*:1]; AEEA = NCCOCCOCC(=O)O; Aoc = NCCCCCCCC(=O)O; Sar = CNCC(=O)O

tested on: classical complement pathway; test: In vitro haemolysis assay (inhibition of classical complement pathway); type: cell-based, human; details: human serum, sensitized sheep red blood cells; Table 3, cells printed in μM; read-out: IC50, inhibition of hemolysis
Summary of the method: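 Compound dilutions preincubated 15 min at room temperature with diluted human serum (titrated per batch for 70-90% maximal haemolysis), then antibody-sensitized sheep RBC (10^7/well) added for 30 min at 37 °C in Tris/casein buffer, pH 7.4. Stopped with EDTA; haemolysis read at 405 nm; IC50 by 4PL fit.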

Compound	IC50 [µM]
CC[C@H](C)[C@H](NC(C)=O)C(=O)N[C@H]1CSSC[C@@H](C(=O)N[C@H](C(N)=O)[C@@H](C)O)NC(=O)[C@H](CCCNC(=N)N)NC(=O)[C@H](Cc2c[nH]cn2)NC(=O)[C@H](Cc2c[nH]cn2)NC(=O)CNC(=O)[C@H](Cc2c[nH]c3ccccc23)NC(=O)[C@H](CC(=O)O)NC(=O)[C@H](CCC(N)=O)NC(=O)[C@H](C(C)C)NC(=O)[C@H](C(C)C)NC1=O [Ac-compstatin, reference compound]	> 5

same assay, conditions: human serum, sensitized sheep red blood cells; Table 3, given as upper bounds; read-out: IC50, inhibition of hemolysis

Compound	IC50 [µM]
CC[C@H](C)[C@@H]1NC(=O)[C@@H](NC(=O)[C@H](Cc2ccccc2)NC(=O)[C@H](CCC(=O)O)NC(=O)[C@H](CO)NC(C)=O)CSSC[C@@H](C(=O)N(C)CC(=O)N[C@@H](CCC(=O)O)C(=O)NCCOCCOCC(=O)NCCOCCOCC(=O)N[C@@H](CCCCNC(=O)CC[C@H](NC(=O)CNC(=O)CC[C@H](NC(=O)CCCCCCCCCCCCCCCCC(=O)O)C(=O)O)C(=O)O)C(N)=O)NC(=O)[C@H](CCCNC(=N)N)NC(=O)[C@H](Cc2c[nH]cn2)NC(=O)[C@H](CCC(=O)O)NC(=O)CN(C)C(=O)[C@H](Cc2c[nH]c3ccccc23)NC(=O)[C@H](CC(=O)O)NC(=O)[C@H](CCC(N)=O)NC(=O)[C@H](Cc2cn(C)c3ccccc23)NC1=O [Compound 144, Ac-SEFC(1)I[1-Me-Trp]QDW[Sar]EHRC(1)[Sar]E[Peg3][Peg3]-K([17-carboxy-heptadecanoyl][γGlu]G[γGlu])-NH2] (Ac-SEFCI[Trp(1-Me)]QDW[Sar]EHRC[Sar]E[AEEA][AEEA]K([γGlu-Gly-γGlu-C18 diacid])-NH2; disulfide 4-14)	< 0.1
CC[C@H](C)[C@@H]1NC(=O)[C@@H](NC(=O)[C@H](Cc2ccc(O)cc2)NC(=O)[C@H](CCC(=O)O)NC(=O)[C@H](CO)NC(C)=O)CSSC[C@@H](C(=O)N(C)CC(=O)N[C@@H](CCC(=O)O)C(=O)NCC(=O)N[C@@H](CCC(=O)O)C(=O)NCCOCCOCC(=O)NCCOCCOCC(=O)N[C@@H](CCCCNC(=O)CC[C@H](NC(=O)CNC(=O)CC[C@H](NC(=O)CCCCCCCCCCCCCCCCC(=O)O)C(=O)O)C(=O)O)C(N)=O)NC(=O)[C@H](CCCNC(=N)N)NC(=O)[C@H](Cc2c[nH]cn2)NC(=O)[C@H](CCC(=O)O)NC(=O)CNC(=O)[C@H](Cc2c[nH]c3ccccc23)NC(=O)[C@H](CC(=O)O)NC(=O)[C@H](CCC(N)=O)NC(=O)[C@H](Cc2cn(C)c3ccccc23)NC1=O [Compound 117] (Ac-SEYCI[Trp(1-Me)]QDWGEHRC[Sar]EGE[AEEA][AEEA]K([γGlu-Gly-γGlu-C18 diacid])-NH2; disulfide 4-14)	< 0.25
CC[C@H](C)[C@@H]1NC(=O)[C@@H](NC(=O)[C@H](Cc2ccccc2)NC(=O)[C@H](CCC(=O)O)NC(=O)[C@H](CO)NC(C)=O)CSSC[C@@H](C(=O)N[C@H](C(=O)N[C@@H](CCC(=O)O)C(=O)NCC(=O)N[C@@H](CCC(=O)O)C(=O)NCCCCCCCC(=O)N[C@@H](CCCCNC(=O)CC[C@H](NC(=O)CNC(=O)CC[C@H](NC(=O)CCCCCCCCCCCCCCCCC(=O)O)C(=O)O)C(=O)O)C(N)=O)[C@@H](C)O)NC(=O)[C@H](CCCNC(=N)N)NC(=O)[C@H](Cc2c[nH]cn2)NC(=O)[C@H](CCC(=O)O)NC(=O)CNC(=O)[C@H](Cc2c[nH]c3ccccc23)NC(=O)[C@H](CC(=O)O)NC(=O)[C@H](CCC(N)=O)NC(=O)[C@H](Cc2cn(C)c3ccccc23)NC1=O [Compound 136] (Ac-SEFCI[Trp(1-Me)]QDWGEHRCTEGE[Aoc]K([γGlu-Gly-γGlu-C18 diacid])-NH2; disulfide 4-14)	< 0.1
CC[C@H](C)[C@@H]1NC(=O)[C@@H](NC(=O)[C@H](Cc2ccccc2)NC(=O)[C@H](CCC(=O)O)NC(C)=O)CSSC[C@@H](C(=O)N[C@@H](CCC(=O)O)C(=O)N[C@@H](CO)C(N)=O)NC(=O)[C@H](CCCNC(=N)N)NC(=O)[C@H](Cc2c[nH]cn2)NC(=O)[C@H](CCC(=O)O)NC(=O)CNC(=O)[C@H](Cc2c[nH]c3ccccc23)NC(=O)[C@H](CC(=O)O)NC(=O)[C@H](CCC(N)=O)NC(=O)[C@H](Cc2cn(C)c3ccccc23)NC1=O [Compound 85] (Ac-EFCI[Trp(1-Me)]QDWGEHRCES-NH2; disulfide 3-13)	< 0.1
CC[C@H](C)[C@H](NC(C)=O)C(=O)N[C@H]1CSSC[C@@H](C(=O)N(C)CC(N)=O)NC(=O)[C@H](CCCNC(=N)N)NC(=O)[C@H](Cc2c[nH]cn2)NC(=O)[C@H](CCC(=O)O)NC(=O)CNC(=O)[C@H](Cc2c[nH]c3ccccc23)NC(=O)[C@H](CC(=O)O)NC(=O)[C@H](CCC(N)=O)NC(=O)[C@H](Cc2c[nH]c3ccccc23)NC(=O)[C@H]([C@@H](C)CC)NC1=O [Compound 13] (Ac-ICIWQDWGEHRC[Sar]-NH2; disulfide 2-12)	< 0.1
CC[C@H](C)[C@H](NC(C)=O)C(=O)N[C@H]1CSSC[C@@H](C(=O)N[C@H](C(N)=O)[C@@H](C)O)NC(=O)[C@H](CCCNC(=N)N)NC(=O)[C@H](Cc2c[nH]cn2)NC(=O)[C@H](CO)NC(=O)CNC(=O)[C@H](Cc2c[nH]c3ccccc23)NC(=O)[C@H](CC(=O)O)NC(=O)[C@H](CCC(N)=O)NC(=O)[C@H](Cc2c[nH]c3ccccc23)NC(=O)[C@H]([C@@H](C)CC)NC1=O [Compound 6] (Ac-ICIWQDWGSHRCT-NH2; disulfide 2-12)	< 0.25
CC[C@H](C)[C@H](NC(C)=O)C(=O)N[C@H]1CSSC[C@@H](C(=O)N[C@H](C(N)=O)[C@@H](C)O)NC(=O)[C@H](CCCNC(=N)N)NC(=O)[C@H](Cc2c[nH]cn2)NC(=O)[C@H](CC(=O)O)NC(=O)CNC(=O)[C@H](Cc2c[nH]c3ccccc23)NC(=O)[C@H](CC(=O)O)NC(=O)[C@H](CCC(N)=O)NC(=O)[C@H](Cc2c[nH]c3ccccc23)NC(=O)[C@H]([C@@H](C)CC)NC1=O [Compound 17] (Ac-ICIWQDWGDHRCT-NH2; disulfide 2-12)	< 0.1
CC[C@H](C)[C@@H]1NC(=O)[C@@H](NC(=O)[C@H](Cc2ccccc2)NC(=O)[C@H](CCC(=O)O)NC(=O)[C@H](CO)NC(C)=O)CSSC[C@@H](C(=O)N[C@H](C(=O)N[C@@H](CCC(=O)O)C(=O)NCC(=O)N[C@@H](CCC(=O)O)C(=O)NCCOCCOCC(=O)N[C@@H](CCC(=O)O)C(=O)N[C@@H](CO)C(=O)N[C@@H](CCCCNC(=O)CC[C@H](NC(=O)CCCCCCCCCCCCCCCCC(=O)O)C(=O)O)C(N)=O)[C@@H](C)O)NC(=O)[C@H](CCCNC(=N)N)NC(=O)[C@H](Cc2c[nH]cn2)NC(=O)[C@H](CCC(=O)O)NC(=O)CNC(=O)[C@H](Cc2c[nH]c3ccccc23)NC(=O)[C@H](CC(=O)O)NC(=O)[C@H](CCC(N)=O)NC(=O)[C@H](Cc2cn(C)c3ccccc23)NC1=O [Compound 142] (Ac-SEFCI[Trp(1-Me)]QDWGEHRCTEGE[AEEA]ESK([γGlu-C18 diacid])-NH2; disulfide 4-14)	< 0.1
CC[C@H](C)[C@@H]1NC(=O)[C@@H](NC(=O)[C@H](Cc2ccc(O)cc2)NC(=O)[C@H](CCC(=O)O)NC(=O)CNC(=O)[C@H](CO)NC(=O)[C@H](C)NC(C)=O)CSSC[C@@H](C(=O)N(C)CC(=O)N[C@@H](CCC(=O)O)C(=O)NCC(=O)N[C@@H](CCC(=O)O)C(=O)N[C@@H](CCCCNC(=O)CC[C@H](NC(=O)CNC(=O)CC[C@H](NC(=O)CCCCCCCCCCCCCCCCC(=O)O)C(=O)O)C(=O)O)C(N)=O)NC(=O)[C@H](CCCNC(=N)N)NC(=O)[C@H](Cc2c[nH]cn2)NC(=O)[C@H](CCC(=O)O)NC(=O)CNC(=O)[C@H](Cc2c[nH]c3ccccc23)NC(=O)[C@H](CC(=O)O)NC(=O)[C@H](CCC(N)=O)NC(=O)[C@H](Cc2cn(C)c3ccccc23)NC1=O [Compound 113] (Ac-ASGEYCI[Trp(1-Me)]QDWGEHRC[Sar]EGEK([γGlu-Gly-γGlu-C18 diacid])-NH2; disulfide 6-16)	< 0.5
CC[C@H](C)[C@H](NC(=O)[C@H](C)NC(=O)[C@H](CO)NC(=O)CNC(=O)[C@H](CCCCNC(=O)COCCOCCNC(=O)COCCOCCNC(=O)CC[C@H](NC(=O)CCCCCCCCCCCCCCC(=O)O)C(=O)O)NC(C)=O)C(=O)N[C@H]1CSSC[C@@H](C(=O)N[C@H](C(=O)N[C@@H](CCC(=O)O)C(=O)NCC(=O)N[C@@H](CCC(=O)O)C(N)=O)[C@@H](C)O)NC(=O)[C@H](CCCNC(=N)N)NC(=O)[C@H](Cc2c[nH]cn2)NC(=O)[C@H](CCC(=O)O)NC(=O)CNC(=O)[C@H](Cc2c[nH]c3ccccc23)NC(=O)[C@H](CC(=O)O)NC(=O)[C@H](CCC(N)=O)NC(=O)[C@H](Cc2c[nH]c3ccccc23)NC(=O)[C@H]([C@@H](C)CC)NC1=O [Compound 100] (Ac-K([AEEA-AEEA-γGlu-C16 diacid])GSAICIWQDWGEHRCTEGE-NH2; disulfide 6-16)	< 0.5
CC[C@H](C)[C@H](NC(C)=O)C(=O)N[C@H]1CSSC[C@@H](C(=O)N[C@H](C(N)=O)[C@@H](C)O)NC(=O)[C@H](CCCNC(=N)N)NC(=O)[C@H](Cc2c[nH]cn2)NC(=O)[C@H](CCCCN)NC(=O)CNC(=O)[C@H](Cc2c[nH]c3ccccc23)NC(=O)[C@H](CC(=O)O)NC(=O)[C@H](CCC(N)=O)NC(=O)[C@H](Cc2c[nH]c3ccccc23)NC(=O)[C@H]([C@@H](C)CC)NC1=O [Compound 5] (Ac-ICIWQDWGKHRCT-NH2; disulfide 2-12)	< 0.25
CC[C@H](C)[C@@H]1NC(=O)[C@@H](NC(=O)CN(C)C(=O)[C@H](N)Cc2ccc(O)cc2)CSSC[C@@H](C(=O)N[C@H](C(=O)N[C@@H](CCC(=O)O)C(=O)N[C@@H](C)C(N)=O)[C@@H](C)O)NC(=O)[C@H](CCCNC(=N)N)NC(=O)[C@H](Cc2c[nH]cn2)NC(=O)[C@H](CCC(=O)O)NC(=O)CNC(=O)[C@H](Cc2c[nH]c3ccccc23)NC(=O)[C@H](CC(=O)O)NC(=O)[C@H](CCC(N)=O)NC(=O)[C@H](Cc2cn(C)c3ccccc23)NC1=O [Compound 91] (H-[dY][Sar]CI[Trp(1-Me)]QDWGEHRCTEA-NH2; disulfide 3-13)	< 0.1

same assay, conditions: human serum, sensitized sheep red blood cells; Table 4, valine 3 vs isoleucine 3 pairs; read-out: CP hemolysis IC50

Compound	IC50 [µM]
CC[C@H](C)[C@H](NC(C)=O)C(=O)N[C@H]1CSSC[C@@H](C(=O)N[C@H](C(N)=O)[C@@H](C)O)NC(=O)[C@H](CCCNC(=N)N)NC(=O)[C@H](Cc2c[nH]cn2)NC(=O)[C@H](CO)NC(=O)CNC(=O)[C@H](Cc2c[nH]c3ccccc23)NC(=O)[C@H](CC(=O)O)NC(=O)[C@H](CCC(N)=O)NC(=O)[C@H](Cc2c[nH]c3ccccc23)NC(=O)[C@H]([C@@H](C)CC)NC1=O [Compound 6] (Ac-ICIWQDWGSHRCT-NH2; disulfide 2-12)	0.14
